The subject of this assay is 786-O subcutaneous xenografts. Kind of assay: In vivo 786-O tumor growth model. The following applies: female nude mice, 30 mg/kg p.o. qd, 21 days. Here is the method: Female nude mice bearing 786-O subcutaneous xenografts were treated with Example 31 at 30 mg/kg p.o. qd or vehicle control. Treatments started 34 days post tumor inoculation and lasted 21 days. Values are provided as mean±SEM with a sample size of n=6 mice per group. The initial tumor volume at day 0 was approximately 260 mm^3.
Experiments were performed in female nude Crl:NU(NCr)-Foxnlnu-Homozygous mice (Charles River, Germany). Animals were 6-9 weeks of age at time of application of the compound. Animals were housed under Optimized Hygienic Conditions in Makrolon type III cages (max. 5 animals per cage) with free access to food and water. […]
Cell line and cell culture: 786-O and SKRC-01 cells were grown in 500 ml RPMI1640 Medium+5 ml L-Glutamine+50 ml FCS+5 ml Sodium Pyruvate+5 ml HEPES and incubated at 37° C. in a 5% CO2 humidified atmosphere. Cells were harvested with trypsin-EDTA, re-suspended in culture medium (with additives) and counted with a Casy® system. […]
Evaluation of antitumor activity: Tumor volumes were measured with calipers and determined according to the formula: length×diameter^2×π/6. In addition to presenting changes of tumor volumes over the course of treatments, antitumor activity is expressed as T/C % (mean change of tumor volume of treated animals/mean change of tumor volume of control animals)×100. […]

In the case of `FC(F)OC1=CC(C(F)(F)F)=CN2C[C@@]3(CCC(F)(F)c4c3ccnc4Cl)N=C12` [Example 31, (S)-1′-chloro-8-(difluoromethoxy)-8′,8′-difluoro-6-(trifluoromethyl)-7′,8′-dihydro-3H,6′H-spiro[imidazo[1,2-a]pyridine-2,5′-isoquinoline]], the anti-tumor activity result was “demonstrated”.
